# Source: US12502362B2, “Inhibitors of nucleotidyltransferase superfamily enzymes as antibiotics” (priority 2017, dated 2025)
# Like-named read-outs stand apart in the source and are kept apart here.
# How the values were obtained:
# [1] = test system: Coagulase negative Staphylococcus; experiment: Antibiotic susceptibility of coagulase negative Staphylococcus strains; assay type: cell-based
# Klebsiella pneumonia = experiment: Antibiotic susceptibility of Klebsiella pneumonia strains; assay type: cell-based
# Source text: (§1) All these MDR-bacteria are at least resistant to two classes of the antibiotics among five groups and/or specific antibiotics including quinolones/fluorquinolones, carbapenems, cephalosporins, aminoglycosides and piperacillin-tazobactam.
# [2] = test system: Enterobacter cloacae complex; experiment: Antibiotic susceptibility of Enterobacter cloacae complex strain; assay type: cell-based; details: Ecc1 (Enterobacter cloacae complex)
# Source text: as §1
# [3] = test system: S. aureus ATCC strains and MRSA; assay type: cell-based, Staphylococcus aureus
# Morganella morganii = experiment: Antibiotic susceptibility of Morganella morganii strain; assay type: cell-based; details: Mm1 (Morganella morganii)
# Source text: as §1
# Staphylococcus hominis = assay type: cell-based
# Method: (§2) It was also tested whether compounds #63 and #285 can inhibit other coagulase-negative Staphylococcus (CNS) including S. epidermidis, S. hominis, etc. […].
# [4] = test system: Staphylococcus epidermidis; assay type: cell-based
# Method: as §2
# Citrobacter koseri = experiment: Antibiotic susceptibility of Citrobacter koseri strain; assay type: cell-based; details: Ck1 (Citrobacter koseri)
# Source text: as §1
# [5] = test system: MDR Acinetobacter baumannii; assay type: cell-based
# Source text: as §1
# MDR E. coli = assay type: cell-based
# Source text: as §1
# [6] = CNS1 (Coagulase negative Staphylococcus)
# [7] = CNS2 (Coagulase negative Staphylococcus)
# [8] = Se1 (Staphylococcus epidermidis)
# [9] = Se2 (Staphylococcus epidermidis)
# [10] = Se3 (Staphylococcus epidermidis)
# [11] = Se4 (Staphylococcus epidermidis)
# [12] = Se5 (Staphylococcus epidermidis)
compound,measurement,setting,value
"C[C@H]1COc2c(N3CCN(C)CC3)c(F)cc3c(=O)c(C(=O)O)cn1c23 [LVX, levofloxacin]",Antibiotic susceptibility,[1]; [6],S
same,Antibiotic susceptibility,[1]; [7],R
same,Antibiotic susceptibility,Klebsiella pneumonia; Kp1 (Klebsiella pneumonia),S
same,Antibiotic susceptibility,Klebsiella pneumonia; Kp6 (Klebsiella pneumonia),R
same,Antibiotic susceptibility,[2],S
same,Antibiotic susceptibility,[3]; S. aureus ATCC 25923,S
same,Antibiotic susceptibility,[3]; S. aureus ATCC 29213,S
same,Antibiotic susceptibility,[3]; S. aureus ATCC BAA 976,S
same,Antibiotic susceptibility,[3]; S. aureus ATCC BAA 977,S
same,Antibiotic susceptibility,[3]; S. aureus ATCC BAA 1026,R
same,Antibiotic susceptibility,[3]; Sa1 (MRSA),R
same,Antibiotic susceptibility,[3]; Sa2 (MRSA),R
same,Antibiotic susceptibility,[3]; Sa3 (MRSA),R
same,Antibiotic susceptibility,[3]; Sa6 (MRSA),R
same,Antibiotic susceptibility,[3]; Sa7 (MRSA),S
same,Antibiotic susceptibility,[3]; Sa9 (MRSA),R
same,Antibiotic susceptibility,[3]; Sa11 (MRSA),R
same,Antibiotic susceptibility,[3]; Sa12 (MRSA),R
same,Antibiotic susceptibility,[3]; Sa14 (MRSA),R
same,Antibiotic susceptibility,[3]; Sa15 (MRSA),R
same,Antibiotic susceptibility,[3]; Sa16 (MRSA),R
same,Antibiotic susceptibility,[3]; Sa17 (MRSA),R
same,Antibiotic susceptibility,[3]; Sa18 (MRSA),R
same,Antibiotic susceptibility,[3]; Sa19 (MRSA),S
same,Antibiotic susceptibility,[3]; Sa20 (MRSA),R
same,Antibiotic susceptibility,[3]; Sa21 (MRSA),S
same,Antibiotic susceptibility,[3]; Sa22 (MRSA),S
same,Antibiotic susceptibility,[3]; Sa23 (MRSA),S
same,Antibiotic susceptibility,Morganella morganii,R
same,Antibiotic susceptibility,Staphylococcus hominis; Sh1 (Staphylococcus hominis),R
same,Antibiotic susceptibility,Staphylococcus hominis; Sh2 (Staphylococcus hominis),S
same,Antibiotic susceptibility,Staphylococcus hominis; Sh3 (Staphylococcus hominis),S
same,Antibiotic susceptibility,[4]; [8],R
same,Antibiotic susceptibility,[4]; [9],S
same,Antibiotic susceptibility,[4]; [10],R
same,Antibiotic susceptibility,[4]; [11],R
same,Antibiotic susceptibility,[4]; [12],R
same,Antibiotic susceptibility,Citrobacter koseri,I
same,Antibiotic susceptibility,[5]; Ab1 (Acinetobacter baumannii),R
same,Antibiotic susceptibility,[5]; Ab2 (Acinetobacter baumannii),I
same,Antibiotic susceptibility,[5]; Ab3 (Acinetobacter baumannii),R
same,Antibiotic susceptibility,[5]; Ab4 (Acinetobacter baumannii),R
same,Antibiotic susceptibility,[5]; Ab5 (Acinetobacter baumannii),R
same,Antibiotic susceptibility,MDR E. coli; Ec1 (E. coli),S
same,Antibiotic susceptibility,MDR E. coli; Ec2 (E. coli),R
same,Antibiotic susceptibility,MDR E. coli; Ec3 (E. coli),S
same,Antibiotic susceptibility,MDR E. coli; Ec4 (E. coli),R
same,Antibiotic susceptibility,MDR E. coli; Ec5 (E. coli),R
"O=C1CN(/N=C/c2ccc([N+](=O)[O-])o2)C(=O)N1 [NIT, Nitrofurantoin]",Antibiotic susceptibility,[1]; [6],S
same,Antibiotic susceptibility,[1]; [7],S
same,Antibiotic susceptibility,Klebsiella pneumonia; Kp1 (Klebsiella pneumonia),S
same,Antibiotic susceptibility,Klebsiella pneumonia; Kp6 (Klebsiella pneumonia),R
same,Antibiotic susceptibility,[2],S
same,Antibiotic susceptibility,[3]; S. aureus ATCC 25923,S
same,Antibiotic susceptibility,[3]; S. aureus ATCC 29213,S
same,Antibiotic susceptibility,[3]; S. aureus ATCC BAA 976,S
same,Antibiotic susceptibility,[3]; S. aureus ATCC BAA 977,S
same,Antibiotic susceptibility,[3]; S. aureus ATCC BAA 1026,S
same,Antibiotic susceptibility,[3]; Sa1 (MRSA),S
same,Antibiotic susceptibility,[3]; Sa2 (MRSA),S
same,Antibiotic susceptibility,[3]; Sa3 (MRSA),S
same,Antibiotic susceptibility,[3]; Sa6 (MRSA),S
same,Antibiotic susceptibility,[3]; Sa7 (MRSA),S
same,Antibiotic susceptibility,[3]; Sa9 (MRSA),S
same,Antibiotic susceptibility,[3]; Sa11 (MRSA),S
same,Antibiotic susceptibility,[3]; Sa12 (MRSA),S
same,Antibiotic susceptibility,[3]; Sa14 (MRSA),S
same,Antibiotic susceptibility,[3]; Sa15 (MRSA),S
same,Antibiotic susceptibility,[3]; Sa16 (MRSA),S
same,Antibiotic susceptibility,[3]; Sa17 (MRSA),S
same,Antibiotic susceptibility,[3]; Sa18 (MRSA),S
same,Antibiotic susceptibility,[3]; Sa19 (MRSA),S
same,Antibiotic susceptibility,[3]; Sa20 (MRSA),S
same,Antibiotic susceptibility,[3]; Sa21 (MRSA),S
same,Antibiotic susceptibility,[3]; Sa22 (MRSA),S
same,Antibiotic susceptibility,[3]; Sa23 (MRSA),S
same,Antibiotic susceptibility,Morganella morganii,R
same,Antibiotic susceptibility,Staphylococcus hominis,S
same,Antibiotic susceptibility,[4],S
same,Antibiotic susceptibility,Citrobacter koseri,R
same,Antibiotic susceptibility,[5]; Ab1 (Acinetobacter baumannii),R
same,Antibiotic susceptibility,[5]; Ab2 (Acinetobacter baumannii),R
same,Antibiotic susceptibility,[5]; Ab3 (Acinetobacter baumannii),R
same,Antibiotic susceptibility,[5]; Ab4 (Acinetobacter baumannii),R
same,Antibiotic susceptibility,[5]; Ab5 (Acinetobacter baumannii),R
same,Antibiotic susceptibility,MDR E. coli; Ec1 (E. coli),S
same,Antibiotic susceptibility,MDR E. coli; Ec2 (E. coli),S
same,Antibiotic susceptibility,MDR E. coli; Ec3 (E. coli),S
same,Antibiotic susceptibility,MDR E. coli; Ec4 (E. coli),S
same,Antibiotic susceptibility,MDR E. coli; Ec5 (E. coli),S
Gentamicin,Antibiotic susceptibility,[1]; [6],S
same,Antibiotic susceptibility,[1]; [7],S
same,Antibiotic susceptibility,Klebsiella pneumonia; Kp1 (Klebsiella pneumonia),S
same,Antibiotic susceptibility,Klebsiella pneumonia; Kp6 (Klebsiella pneumonia),S
same,Antibiotic susceptibility,[2],R
same,Antibiotic susceptibility,[3]; S. aureus ATCC 25923,S
same,Antibiotic susceptibility,[3]; S. aureus ATCC 29213,S
same,Antibiotic susceptibility,[3]; S. aureus ATCC BAA 976,S
same,Antibiotic susceptibility,[3]; S. aureus ATCC BAA 977,S
same,Antibiotic susceptibility,[3]; S. aureus ATCC BAA 1026,R
same,Antibiotic susceptibility,[3]; Sa1 (MRSA),S
same,Antibiotic susceptibility,[3]; Sa2 (MRSA),S
same,Antibiotic susceptibility,[3]; Sa3 (MRSA),S
same,Antibiotic susceptibility,[3]; Sa5 (MRSA),S
same,Antibiotic susceptibility,[3]; Sa6 (MRSA),S
same,Antibiotic susceptibility,[3]; Sa7 (MRSA),S
same,Antibiotic susceptibility,[3]; Sa8 (MRSA),S
same,Antibiotic susceptibility,[3]; Sa9 (MRSA),S
same,Antibiotic susceptibility,[3]; Sa10 (MRSA),S
same,Antibiotic susceptibility,[3]; Sa11 (MRSA),S
same,Antibiotic susceptibility,[3]; Sa12 (MRSA),S
same,Antibiotic susceptibility,[3]; Sa14 (MRSA),S
same,Antibiotic susceptibility,[3]; Sa15 (MRSA),S
same,Antibiotic susceptibility,[3]; Sa16 (MRSA),S
same,Antibiotic susceptibility,[3]; Sa17 (MRSA),S
same,Antibiotic susceptibility,[3]; Sa18 (MRSA),S
same,Antibiotic susceptibility,[3]; Sa19 (MRSA),S
same,Antibiotic susceptibility,[3]; Sa20 (MRSA),S
same,Antibiotic susceptibility,[3]; Sa21 (MRSA),S
same,Antibiotic susceptibility,[3]; Sa22 (MRSA),S
same,Antibiotic susceptibility,[3]; Sa23 (MRSA),S
same,Antibiotic susceptibility,Morganella morganii,R
same,Antibiotic susceptibility,Staphylococcus hominis; Sh1 (Staphylococcus hominis),S
same,Antibiotic susceptibility,Staphylococcus hominis; Sh2 (Staphylococcus hominis),S
same,Antibiotic susceptibility,Staphylococcus hominis; Sh3 (Staphylococcus hominis),S
same,Antibiotic susceptibility,[4]; [8],S
same,Antibiotic susceptibility,[4]; [9],S
same,Antibiotic susceptibility,[4]; [10],R
same,Antibiotic susceptibility,[4]; [11],R
same,Antibiotic susceptibility,[4]; [12],I
same,Antibiotic susceptibility,Citrobacter koseri,R
same,Antibiotic susceptibility,[5]; Ab1 (Acinetobacter baumannii),S
same,Antibiotic susceptibility,[5]; Ab2 (Acinetobacter baumannii),R
same,Antibiotic susceptibility,[5]; Ab3 (Acinetobacter baumannii),R
same,Antibiotic susceptibility,[5]; Ab4 (Acinetobacter baumannii),R
same,Antibiotic susceptibility,[5]; Ab5 (Acinetobacter baumannii),R
same,Antibiotic susceptibility,MDR E. coli; Ec1 (E. coli),R
same,Antibiotic susceptibility,MDR E. coli; Ec2 (E. coli),R
same,Antibiotic susceptibility,MDR E. coli; Ec3 (E. coli),R
same,Antibiotic susceptibility,MDR E. coli; Ec4 (E. coli),S
same,Antibiotic susceptibility,MDR E. coli; Ec5 (E. coli),S
Trimethoprim-Sulfamethoxazole [SXT],Antibiotic susceptibility,[1]; [6],S
same,Antibiotic susceptibility,[1]; [7],S
same,Antibiotic susceptibility,Klebsiella pneumonia; Kp1 (Klebsiella pneumonia),R
same,Antibiotic susceptibility,Klebsiella pneumonia; Kp6 (Klebsiella pneumonia),R
same,Antibiotic susceptibility,[2],S
same,Antibiotic susceptibility,[3]; S. aureus ATCC 25923,S
same,Antibiotic susceptibility,[3]; S. aureus ATCC 29213,S
same,Antibiotic susceptibility,[3]; S. aureus ATCC BAA 976,S
same,Antibiotic susceptibility,[3]; S. aureus ATCC BAA 977,S
same,Antibiotic susceptibility,[3]; S. aureus ATCC BAA 1026,R
same,Antibiotic susceptibility,[3]; Sa1 (MRSA),R
same,Antibiotic susceptibility,[3]; Sa2 (MRSA),S
same,Antibiotic susceptibility,[3]; Sa3 (MRSA),S
same,Antibiotic susceptibility,[3]; Sa5 (MRSA),S
same,Antibiotic susceptibility,[3]; Sa6 (MRSA),S
same,Antibiotic susceptibility,[3]; Sa7 (MRSA),S
same,Antibiotic susceptibility,[3]; Sa8 (MRSA),S
same,Antibiotic susceptibility,[3]; Sa9 (MRSA),S
same,Antibiotic susceptibility,[3]; Sa10 (MRSA),S
same,Antibiotic susceptibility,[3]; Sa11 (MRSA),S
same,Antibiotic susceptibility,[3]; Sa12 (MRSA),S
same,Antibiotic susceptibility,[3]; Sa14 (MRSA),S
same,Antibiotic susceptibility,[3]; Sa15 (MRSA),R
same,Antibiotic susceptibility,[3]; Sa16 (MRSA),S
same,Antibiotic susceptibility,[3]; Sa17 (MRSA),S
same,Antibiotic susceptibility,[3]; Sa18 (MRSA),S
same,Antibiotic susceptibility,[3]; Sa19 (MRSA),S
same,Antibiotic susceptibility,[3]; Sa20 (MRSA),S
same,Antibiotic susceptibility,[3]; Sa21 (MRSA),S
same,Antibiotic susceptibility,[3]; Sa22 (MRSA),S
same,Antibiotic susceptibility,[3]; Sa23 (MRSA),S
same,MRSA strains resistant,[3]; number of resistant strains out of 21 MRSA strains,2/21
same,Antibiotic susceptibility,Morganella morganii,R
same,Antibiotic susceptibility,Staphylococcus hominis,R and S
same,Antibiotic susceptibility,[4],R
same,Antibiotic susceptibility,Citrobacter koseri,R
same,Antibiotic susceptibility,[5]; Ab1 (Acinetobacter baumannii),R
same,Antibiotic susceptibility,[5]; Ab2 (Acinetobacter baumannii),R
same,Antibiotic susceptibility,[5]; Ab3 (Acinetobacter baumannii),R
same,Antibiotic susceptibility,[5]; Ab4 (Acinetobacter baumannii),R
same,Antibiotic susceptibility,[5]; Ab5 (Acinetobacter baumannii),R
same,Antibiotic susceptibility,MDR E. coli; Ec1 (E. coli),R
same,Antibiotic susceptibility,MDR E. coli; Ec2 (E. coli),R
same,Antibiotic susceptibility,MDR E. coli; Ec3 (E. coli),R
same,Antibiotic susceptibility,MDR E. coli; Ec4 (E. coli),S
same,Antibiotic susceptibility,MDR E. coli; Ec5 (E. coli),R
